Data published in patent publication US20250091994A1, “RAS/RAF BINDING INHIBITOR COMPOUND” (NATIONAL UNIVERSITY CORPORATION KOBE UNIVERSITY, priority 2021, published 2025).
Where two headings read alike, the source gives them in different places. Each block holds one compound with its values, some of them ahead of it.

Columns and labels:
[1] = molecular target: GTPγS-bound human HRasG12V / human c-Raf-1 Ras binding domain (RBD) (Homo sapiens (Human), UniProt P01112, G12V); assay: Ras-Raf binding inhibition ELISA
GTPγS-bound human HRasG12V / human c-Raf-1 Ras binding domain (RBD), sequence (P01112 whole entry G12V, the tested form may be a part): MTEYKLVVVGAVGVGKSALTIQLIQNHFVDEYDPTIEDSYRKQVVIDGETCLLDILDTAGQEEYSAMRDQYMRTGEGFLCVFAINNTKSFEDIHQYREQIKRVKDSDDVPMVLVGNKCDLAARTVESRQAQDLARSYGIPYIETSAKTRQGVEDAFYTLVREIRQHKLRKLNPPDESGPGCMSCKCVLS
Description: The in vitro Ras-Raf binding inhibitory activity of the compound of the present invention was evaluated by an ELISA method (Enzyme-Linked ImmunoSorbent Assay) described below.
Ras and Raf used upon the evaluation were purified and activated by the following method.
Using a pGEX6P-1 vector (GE Healthcare), human HRasG12V (full length, 1-189 amino acid residues) and human c-Raf-1 Ras binding domain (RBD) (50-131 amino acid residues) were each allowed to express as a fusion body with glutathione S-transferase (GST) in E. coli.
GST-HRasG12V-expressing cells were subjected to ultrasonication in a buffer {50 mM Tris-HCl pH 7.4, 150 mM NaCl, 5 mM MgCl2, 1 mM ethylenediaminetetraacetic acid (EDTA), 1 mM dithiothreitol (DTT), 10% glycerol, and 1% Triton-X100}, and were then centrifuged at 100,000×g for 30 minutes, so as to collect the supernatant as a Ras protein fraction. HRasG12V in the supernatant was immobilized on a glutathione-agarose resin, and GST was then cleaved with PreScission Protease (GE Healthcare) for purification. The obtained HRasG12V was mixed with guanosine 5′-O-[gamma-thio]triphosphate trisodium salt (GTPTS) of 1000 times higher concentration at 30° C. for 1 hour, and thereafter, 20 mM MgCl2 (final concentration) was added to stop the reaction and collect the GTPgS-loaded HRasG12V as a product.
On the other hand, GST-c-Raf-1 RBD-expressing cells were subjected to ultrasonication in the same buffer as described above, and were then centrifuged at 100,000×g for 30 minutes, so as to collected the supernatant as a GST-c-Raf-1 RBD protein fraction.
The in vitro Ras-Raf binding inhibitory activity of the compound of the present invention was evaluated by an ELISA method described below.
GST-c-Raf-1 RBD diluted with a Ras-Raf binding buffer (50 mM Tris-HCl pH7.4, 150 mM NaCl, 5 mM MgCl2, 1 mM EDTA, and 1% Triton-X100) was added to each well of a glutathione-coated 96-well plate (Thermo Fisher Scientific.), and was incubated at 30° C. for 1 hour, to immobilize Raf on the well. The unbound free Raf was eliminated by washing the well with the Ras-Raf binding buffer three times. Subsequently, GTPTS-bound HRasG12V diluted with the Ras-Raf binding buffer and each compound solution (final DMSO concentration: 10%) were applied to each well, and the resulting mixture was then incubated at 30° C. for 1 hour, so that Ras and Raf were allowed to bind to each other. Thereafter, the plate was washed with the Ras-Raf binding buffer twice, and was then subjected to a blocking treatment at room temperature for 20 minutes, using TBS-Tween {10 mM Tris-HCl pH 7.4, 150 mM NaCl, and 0.05% (w/v) Tween-20}-5% (w/v) bovine serum albumin (BSA). After that, an anti-HRas antibody (C-20, Santa Cruz) or an anti-HRas antibody (259, Santa Cruz), which had been 1000 times diluted with TBS-Tween-5% BSA, was added to the reaction mixture, and incubated at room temperature for 1 hours. After the treatment with the primary antibody, the plate was washed with TBS-Tween-5% BSA three times, and a horseradish peroxidase-labeled secondary antibody against rabbit immunoglobulin G (GE Healthcare) of 1000 times diluted with TBS-Tween-5% BSA, was added to the plate, followed by incubation at room temperature for 1 hour. After the treatment with the secondary antibody, the plate was washed with TBS-Tween-5% BSA three times, and a substrate solution (TMB) was then added to the plate, followed by incubation at room temperature for 15 minutes for coloration. Finally, 2 M H2SO4 was added to stop color development (coloration reaction kit: Nacalai Tesque). The absorbance at 450 nm (OD450) was measured, so that the color intensity was quantified. Inhibition by the test compound was determined according to the following equation: […]
IC50 (*) in which the anti-HRas antibody (259, Santa Cruz) was used

[2] = system: promyelocytic leukemia cells HL60 (N-RasQ61L); assay: Cell growth inhibition, suspension cells HL60; format: cell-based; details: Homo sapiens, HL-60, 72 hours; for inhibition at 10 µM: read-out: HL-60 (NRasQ61L) % inhibition at 10 μM (***)
Description: The cell growth inhibitory activity of the compound of the present invention on human culture cells having active-type mutation in Ras was evaluated by the below-mentioned method using suspension cancer cells {acute lymphoblastic leukemia cells CCRF-CEM (K-RasG12D), promyelocytic leukemia cells HL60 (N-RasQ61L), acute lymphoblastic leukemia cells MOLT4 (N-RasG12C), and small cell lung cancer cells SHP77 (K-RasG12V)} and adherent cancer cells {large bowel cancer cells SW480 (K-RasG12V) and large bowel cancer cell SW620 (K-RasG12V)}.
(Case of suspension cells) The cells suspended in a medium containing 0.5% (v/v) fetal bovine serum (FBS) and each compound solution (final DMSO concentration: 1%) were seeded on a 96-well plate (2 to 4×10^4 cells/well), and the resulting mixture was then cultured at 37° C. in the presence of 5% CO2 for 72 hours.
Thereafter, the number of viable cells was measured using Cell Counting Reagent (Nacalai Tesque) in accordance with the manufacturer's instructions. Inhibition by the test compound was determined according to the following equation: […]

[3] = anti-HRas antibody 259 (*), read-out: ELISA IC50 (μM): 1st Ab_259 (*)
[4] = anti-HRas antibody C-20, read-out: ELISA IC50 (μM): 1st Ab_C-20

Structure (SMILES): COc1cc(/C=C2/C(=O)c3ccccc3N2C(C)=O)ccc1O [Example 3, 1-acetyl-2-(4-hydroxy-3-meth-oxybenzylidene)-indolin-3-one]
inhibition at 100 µM [1]: 57%

Structure (SMILES): CC(=O)N1/C(=C\c2ccc(OCC(N)=O)cc2)C(=O)c2ccccc21 [Example 5, 2-(4-((1-acetyl-3-oxoindolin-2-ylidene)methyl)-phenoxy)acetamide]
inhibition at 100 µM [1]: 71%

Structure (SMILES): COc1cc(/C=C2/C(=O)c3ccccc3N2C(C)=O)ccc1OCCN1CCOCC1 [Example 7, (Z)-1-acetyl-2-(3-methoxy-4-(2-morpholinoethoxy)-benzylidene)indolin-3-one]
inhibition at 100 µM [1]: 83%

Structure (SMILES): COc1cc(/C=C2/C(=O)c3ccccc3N2C(C)=O)ccc1OCCOc1ccccc1 [Example 12, 1-acetyl-2-(3-methoxy-4-(2-phenoxyethoxy)-benzylidene)-indolin-3-one]
inhibition at 100 µM [1]: 49%

Structure (SMILES): CC(=O)N1/C(=C\c2ccc(OCC(N)=O)c(OC(C)C)c2)C(=O)c2ccccc21 [Example 30, 2-(4-((1-acetyl-3-oxoindolin-2-ylidene)methyl)-2-isopropoxy-phenoxy)acet-amide]
inhibition at 100 µM [1]: 63%

Structure (SMILES): CC(=O)N1/C(=C\c2ccc(OCC(=O)N3CCOCC3)c(F)n2)C(=O)c2ccccc21 [Example 32, (Z)-1-acetyl-2-((6-fluoro-5-(2-morpholino-2-oxoethoxy)-pyridin-2-yl)-methylene)-indolin-3-one]
IC50 [1, 4]: 14 µM

Structure (SMILES): CC(=O)N1/C(=C\c2ccc(C(=O)N3CCOCC3)cn2)C(=O)c2ccccc21 [Example 70, (Z)-1-acetyl-2-((5-(morpholine-4-carbonyl)pyridin-2-yl)methylene)-indolin-3-one]
inhibition at 1 µM ([2]; 1 μM, read-out: HL-60 (NRasQ61L) % inhibition at 1 μM): 33%
IC50 [1, 4]: 14 µM

Structure (SMILES): CC(=O)N1/C(=C\c2ccc3oc(C(=O)N4CCOCC4)cc3n2)C(=O)c2ccccc21 [Example 72, (Z)-1-acetyl-2-((2-(morpholine-4-carbonyl)furo [3,2-b]pyridin-5-yl)methylene)-indolin-3-one]
IC50 [1, 3]: 3.6 µM

Structure (SMILES): CC(=O)N1/C(=C\c2ccc3cc(CN4CCN(C5COC5)CC4)ccc3n2)C(=O)c2ccccc21 [Example 74, (Z)-1-acetyl-2-((6-((4-(oxetan-3-yl)piperazin-1-yl)methyl)quinolin-2-yl)methylene)-indolin-3-one]
inhibition at 10 µM [2]: 99%
IC50 [1, 3]: 0.71 µM

Structure (SMILES): CC(=O)N1/C(=C\c2ccc3cc(/C=C/C(=O)N4CCN(C5COC5)CC4)ccc3n2)C(=O)c2ccccc21 [Example 78]
inhibition at 10 µM [2]: 92%
IC50 [1, 3]: 0.93 µM

Structure (SMILES): CC(=O)N1/C(=C\c2nc3cc(C(=O)N4CC(C)OC(C)C4)ccc3s2)C(=O)c2ccccc21 (centres unmarked) [Example 98, (Z)-1-acetyl-2-((5-(2,6-dimethyl-morpholine-4-carbonyl)benzo [d]thiazol-2-yl)-methylene)indolin-3-one]
inhibition at 10 µM [2]: 100%
IC50 [1, 3]: 0.68 µM

Structure (SMILES): CC(=O)N1/C(=C/c2nc3ccc(C(=O)N4CC(C)OC(C)C4)cc3s2)C(=O)c2ccccc21 (centres unmarked) [Example 101, (E)-1-acetyl-2-((6-(2,6-dimethyl-morpholine-4-carbonyl)benzo [d]thiazol-2-yl)-methylene)indolin-3-one]
inhibition at 10 µM [2]: 87%

Structure (SMILES): CC(=O)N1/C(=C\c2nc3ccc(CNC4CCOCC4)cc3s2)C(=O)c2ccccc21 [Example 134]
IC50 [1, 3]: 1.1 µM

Structure (SMILES): CC(=O)N1/C(=C/c2nc3ccc(CNC4CCOCC4)cc3s2)C(=O)c2ccccc21 [Example 135, (E)-1-acetyl-2-((6-(((tetrahydro-2H-pyran-4-yl)-amino)methyl)-benzo[d]thiazol-2-yl)methylene)-indolin-3-one]
inhibition at 10 µM [2]: 98%

Continued, values first:

IC50 [1, 3]: 1.7 µM
Structure (SMILES): CC(=O)N1/C(=C\c2ccc3cc(CNC4C[C@@H](C)O[C@@H](C)C4)ccc3n2)C(=O)c2ccccc21 (mixture of isomers) [Example 136, (Z)-1-acetyl-2-((6-((((2SR,6RS)-2,6-dimethyltetra-hydro-2H-pyran-4-yl)amino)meth-yl)quinolin-2-yl)-methylene)indolin-3-one]

IC50 [1, 3]: 1.3 µM
Structure (SMILES): CC(=O)N1/C(=C\c2ccc3cc(CNC4CC(C)O[C@H](C)C4)ccc3n2)C(=O)c2ccccc21 (mixture of isomers) [Example 137, (Z)-1-acetyl-2-((6-((((2SR,6SR)-2,6-dimethyltetra-hydro-2H-pyran-4-yl)amino)meth-yl)quinolin-2-yl)-methylene)indolin-3-one]

inhibition at 1 µM [1]: 59.9%
IC50 [1, 4]: 0.8 µM
Structure (SMILES): CC(=O)N1/C(=C\c2cc(-c3nc[nH]n3)c3cc(C(=O)N4CCOCC4)ccc3n2)C(=O)c2ccccc21 (racemic) [Example 212, 1-acetyl-2-((6-(morpholine-4-carbonyl)-4-(1H-1,2,4-triazol-3-yl)-quinolin-2-yl)-methylene)indolin-3-one]

inhibition at 1 µM [1]: 59.3%
IC50 [1, 4]: 0.7 µM
Structure (SMILES): CC(=O)N1/C(=C\c2cc(-c3cccc4cccnc34)c3cc(C(=O)O)ccc3n2)C(=O)c2ccccc21 [Example 155, (Z)-2-((1-acetyl-3-oxoindolin-2-ylidene)methyl)-[4,8′-biquinoline]-6-carboxylic acid]

inhibition at 1 µM [1]: 70.1%
IC50 [1, 4]: 0.5 µM
Structure (SMILES): CC(=O)N1/C(=C\c2cc(-c3ccc(C(=O)O)cc3)c3cc(C(=O)N4CCOCC4)ccc3n2)C(=O)c2ccccc21 [Example 174, (Z)-4-(2-((1-acetyl-3-oxoindolin-2-ylidene)methyl)-6-(morpholine-4-carbonyl)quinolin-4-yl)benzoic acid]

inhibition at 1 µM [1]: 67.2%
IC50 [1, 4]: 0.5 µM
Structure (SMILES): CC(=O)N1/C(=C\c2cc(-c3cccc(C(=O)O)c3)c3cc(C(=O)N4CCOCC4)ccc3n2)C(=O)c2ccccc21 [Example 175, (Z)-3-(2-((1-acetyl-3-oxoindolin-2-ylidene)methyl)-6-(morpholine-4-carbonyl)quinolin-4-yl)benzoic acid]

inhibition at 1 µM [1]: 51.1%
IC50 [1, 4]: 1 µM
Structure (SMILES): CC(=O)N1/C(=C\c2cc(-c3ccccc3C(=O)O)c3cc(C(=O)N4CCOCC4)ccc3n2)C(=O)c2ccccc21 [Example 176, (Z)-2-(2-((1-acetyl-3-oxoindolin-2-ylidene)methyl)-6-(morpholine-4-carbonyl)quinolin-4-yl)benzoic acid]

inhibition at 1 µM [1]: 49.2%
IC50 [1, 4]: 1.1 µM
Structure (SMILES): CC(=O)N1/C(=C\c2cc(-c3cccnn3)c3cc(C(=O)N4CCOCC4)ccc3n2)C(=O)c2ccccc21 [Example 191, (Z)-1-acetyl-2-((6-(morpholine-4-carbonyl)-4-(pyridazin-3-yl)-quinolin-2-yl)-methylene)indolin-3-one]
